Our source for the Ki values is US10392391B2 (Vertex Pharmaceuticals Incorporated, priority 2012, dated 2019).

Molecules are shown by their SMILES.

In the first experiment the target is ATR kinase (full-length ATR) (Homo sapiens (Human), UniProt Q13535). Description: ATR inhibition assay (radioactive-phosphate incorporation). Type of experiment: biochemical.
ATR kinase (full-length ATR), sequence (Q13535 whole entry): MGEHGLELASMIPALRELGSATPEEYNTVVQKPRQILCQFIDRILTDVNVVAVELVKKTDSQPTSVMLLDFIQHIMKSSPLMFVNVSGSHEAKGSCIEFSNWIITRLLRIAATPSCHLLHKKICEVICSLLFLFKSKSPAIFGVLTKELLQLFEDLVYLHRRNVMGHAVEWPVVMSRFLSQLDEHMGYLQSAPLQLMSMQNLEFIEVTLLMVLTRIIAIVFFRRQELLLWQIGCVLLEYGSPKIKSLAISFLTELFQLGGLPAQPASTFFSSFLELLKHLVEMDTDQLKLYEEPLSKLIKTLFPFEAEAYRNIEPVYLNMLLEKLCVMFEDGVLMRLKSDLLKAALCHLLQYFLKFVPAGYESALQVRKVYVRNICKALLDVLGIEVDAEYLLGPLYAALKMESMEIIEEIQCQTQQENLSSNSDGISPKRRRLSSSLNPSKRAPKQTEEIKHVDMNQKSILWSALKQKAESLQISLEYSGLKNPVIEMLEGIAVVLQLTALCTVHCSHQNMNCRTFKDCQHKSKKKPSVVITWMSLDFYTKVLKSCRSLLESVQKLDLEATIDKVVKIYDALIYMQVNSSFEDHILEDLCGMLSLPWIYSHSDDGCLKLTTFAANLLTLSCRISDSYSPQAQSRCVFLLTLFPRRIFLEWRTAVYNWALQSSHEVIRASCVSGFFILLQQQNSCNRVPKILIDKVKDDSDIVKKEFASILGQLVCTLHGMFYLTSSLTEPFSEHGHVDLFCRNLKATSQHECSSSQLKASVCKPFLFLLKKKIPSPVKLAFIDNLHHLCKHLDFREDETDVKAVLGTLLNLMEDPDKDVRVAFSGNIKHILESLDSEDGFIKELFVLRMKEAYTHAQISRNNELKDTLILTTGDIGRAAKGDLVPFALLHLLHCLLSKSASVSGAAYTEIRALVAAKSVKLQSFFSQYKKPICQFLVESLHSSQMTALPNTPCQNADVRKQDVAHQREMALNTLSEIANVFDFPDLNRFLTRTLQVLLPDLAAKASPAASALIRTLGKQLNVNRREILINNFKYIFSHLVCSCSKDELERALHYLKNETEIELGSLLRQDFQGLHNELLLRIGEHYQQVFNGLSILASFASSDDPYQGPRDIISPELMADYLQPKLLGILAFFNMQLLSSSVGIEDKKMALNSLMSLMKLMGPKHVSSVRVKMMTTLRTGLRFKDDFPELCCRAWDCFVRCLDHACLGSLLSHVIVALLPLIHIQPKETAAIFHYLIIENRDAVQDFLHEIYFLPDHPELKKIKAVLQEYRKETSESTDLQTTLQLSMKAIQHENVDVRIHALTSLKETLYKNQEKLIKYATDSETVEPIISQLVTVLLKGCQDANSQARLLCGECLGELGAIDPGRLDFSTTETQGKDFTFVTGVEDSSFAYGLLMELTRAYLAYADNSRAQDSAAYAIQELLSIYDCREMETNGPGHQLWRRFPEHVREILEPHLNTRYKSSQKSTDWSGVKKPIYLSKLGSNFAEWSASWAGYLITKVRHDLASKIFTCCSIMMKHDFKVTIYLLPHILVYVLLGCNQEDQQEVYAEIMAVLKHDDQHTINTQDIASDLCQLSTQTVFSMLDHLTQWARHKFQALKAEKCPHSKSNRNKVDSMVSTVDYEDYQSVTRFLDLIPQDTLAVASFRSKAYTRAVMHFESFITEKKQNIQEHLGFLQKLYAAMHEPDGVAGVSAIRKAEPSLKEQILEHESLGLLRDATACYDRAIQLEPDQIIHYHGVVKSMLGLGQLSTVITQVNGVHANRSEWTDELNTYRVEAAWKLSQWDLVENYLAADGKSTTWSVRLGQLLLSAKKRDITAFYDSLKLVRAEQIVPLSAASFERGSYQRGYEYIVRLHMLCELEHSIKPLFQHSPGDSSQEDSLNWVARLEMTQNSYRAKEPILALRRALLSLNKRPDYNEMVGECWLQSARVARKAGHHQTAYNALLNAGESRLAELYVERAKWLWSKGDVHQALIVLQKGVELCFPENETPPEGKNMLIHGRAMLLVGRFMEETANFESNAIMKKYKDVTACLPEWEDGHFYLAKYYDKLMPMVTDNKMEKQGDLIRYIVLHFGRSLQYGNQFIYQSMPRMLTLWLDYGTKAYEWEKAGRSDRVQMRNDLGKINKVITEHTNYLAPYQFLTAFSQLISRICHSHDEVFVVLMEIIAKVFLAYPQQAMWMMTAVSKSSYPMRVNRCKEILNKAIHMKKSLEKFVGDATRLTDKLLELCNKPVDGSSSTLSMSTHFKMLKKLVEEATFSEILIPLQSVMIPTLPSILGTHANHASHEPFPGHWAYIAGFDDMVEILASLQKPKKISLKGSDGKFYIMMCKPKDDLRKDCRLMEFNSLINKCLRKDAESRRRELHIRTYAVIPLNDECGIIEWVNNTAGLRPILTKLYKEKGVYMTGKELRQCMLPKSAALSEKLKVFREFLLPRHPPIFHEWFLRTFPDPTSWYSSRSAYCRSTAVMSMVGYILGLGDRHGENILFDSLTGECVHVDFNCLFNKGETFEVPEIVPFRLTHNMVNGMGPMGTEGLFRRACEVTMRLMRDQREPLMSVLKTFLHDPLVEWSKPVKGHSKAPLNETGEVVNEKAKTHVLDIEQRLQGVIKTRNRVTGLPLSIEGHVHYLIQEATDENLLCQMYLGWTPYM
Settings: not given
The method, then:
Compounds were screened for their ability to inhibit ATR kinase using a radioactive-phosphate incorporation assay. Assays were carried out in a mixture of 50 mM Tris/HCl (pH 7.5), 10 mM MgCl2 and 1 mM DTT. Final substrate concentrations were 10 μM [γ-33P]ATP (3mCi 33P ATP/mmol ATP, Perkin Elmer) and 800 μM target peptide ([…]) (SEQ ID NO:1).
Assays were carried out at 25° C. in the presence of 5 nM full-length ATR. An assay stock buffer solution was prepared containing all of the reagents listed above, with the exception of ATP and the test compound of interest. 13.5 μL of the stock solution was placed in a 96 well plate followed by addition of 2 μL of DMSO stock containing serial dilutions of the test compound (typically starting from a final concentration of 15 μM with 3-fold serial dilutions) in duplicate (final DMSO concentration 7%). The plate was pre-incubated for 10 minutes at 25° C. and the reaction initiated by addition of 15 μL [γ-33P]ATP (final concentration 10 μM).
The reaction was stopped after […] by the addition of 30 μL 0.1M phosphoric acid containing 2 mM ATP. A multiscreen phosphocellulose filter 96-well plate (Millipore, Cat no. MAPHN0B50) was pretreated with 100 μL 0.2M phosphoric acid prior to the addition of […] of the stopped assay mixture. The plate was washed with 5×200 μL 0.2M phosphoric acid. After drying, 100 μL Optiphase ‘SuperMix’ liquid scintillation cocktail (Perkin Elmer) was added to the well prior to scintillation counting (1450 Microbeta Liquid Scintillation Counter, Wallac).
After removing mean background values for all of the data points, Ki(app) data were calculated from non-linear regression analysis of the initial rate data using the Prism software package (GraphPad Prism version 3.0cx for Macintosh, GraphPad Software, San Diego Calif., USA).
As for `CN1CCN(C2CCN(c3c(F)cncc3NC(=O)c3c(N)nn4cc(F)cnc34)CC2)C(=O)C1` [I-N-151, 2-amino-6-fluoro-N-(5-fluoro-4-(4-(4-methyl-2-oxopiperazin-1-yl)piperidin-1-yl)pyridin-3-yl)pyrazolo[1,5-a]pyrimidine-3-carboxamide], the Ki is 1000 to 5000 nM.
Still for that read-out and setting: for `Nc1nn2cc(F)cnc2c1C(=O)Nc1cncc(F)c1N1CCC(C(=O)N2CCN3CCC2C3)CC1` (stereo not drawn) [I-G-46, N-(4-(4-(1,4-diazabicyclo[3.2.1]octane-4-carbonyl)piperidin-1-yl)-5-fluoropyridin-3-yl)-2-amino-6-fluoropyrazolo[1,5-a]pyrimidine-3-carboxamide] the value was 1000 to 5000 nM.
Still for that read-out and setting: for `CN1CC[C@@H](OC2CCN(c3ccncc3NC(=O)c3c(N)nn4cc(F)cnc34)CC2)C1` [I-N-131] the value was 10 to 1000 nM.

The experiment is the same for the next values; noted with them: Ki(app), 5 nM full-length ATR, 10 μM ATP, 25° C.
For the compound `CN1CCN(c2c(F)cncc2NC(=O)c2c(N)nn3cc(F)cnc23)CC1` [I-N-15, 2-amino-6-fluoro-N-(5-fluoro-4-(4-methylpiperazin-1-yl)pyridin-3-yl)pyrazolo[1,5-a]pyrimidine-3-carboxamide], the Ki lay in the range of 10 to 1000 nM.
Still for that read-out and setting: for `CN1CCN(C(=O)N2CCC(c3ccncc3NC(=O)c3c(N)nn4cc(F)cnc34)CC2)CC1` [I-C-17, 2-amino-6-fluoro-N-(4-(1-(4-methylpiperazine-1-carbonyl)piperidin-4-yl)pyridin-3-yl)pyrazolo[1,5-a]pyrimidine-3-carboxamide] the value was 10 to 1000 nM; for `Nc1nn2cc(F)cnc2c1C(=O)Nc1cnccc1OC1COC1` [I-O-92, 2-amino-6-fluoro-N-(4-(oxetan-3-yloxy)pyridin-3-yl)pyrazolo[1,5-a]pyrimidine-3-carboxamide], 10 to 1000 nM.
As for `Nc1nn2cc(F)cnc2c1C(=O)Nc1cncc(F)c1N1CCN(CC(=O)N2CCC2)CC1` [I-N-228, 2-amino-N-(4-(4-(2-(azetidin-1-yl)-2-oxoethyl)piperazin-1-yl)-5-fluoropyridin-3-yl)-6-fluoropyrazolo[1,5-a]pyrimidine-3-carboxamide], the Ki was 10 to 1000 nM.
On the same count and under the same terms, in the case of `CN1CC(OC2CCN(c3ccncc3NC(=O)c3c(N)nn4cc(F)cnc34)CC2)C1` [I-N-164, 2-amino-6-fluoro-N-(4-(4-((1-methylazetidin-3-yl)oxy)piperidin-1-yl)pyridin-3-yl)pyrazolo[1,5-a]pyrimidine-3-carboxamide] it was 10 to 1000 nM; in that of `Nc1nn2cc(Cl)cnc2c1C(=O)Nc1cnccc1N1C2CCC1CC(O)C2` (stereo not drawn) [I-N-42, 2-amino-6-chloro-N-(4-(3-hydroxy-8-azabicyclo[3.2.1]octan-8-yl)pyridin-3-yl)pyrazolo[1,5-a]pyrimidine-3-carboxamide], 10 to 1000 nM; in that of `CS(=O)(=O)C1CCN(c2ccncc2NC(=O)c2c(N)nn3cc(F)cnc23)CC1` [I-N-190, 2-amino-6-fluoro-N-(4-(4-(methylsulfonyl)piperidin-1-yl)pyridin-3-yl)pyrazolo[1,5-a]pyrimidine-3-carboxamide], 10 to 1000 nM.
The same measure, in the same setting: in the case of `CN1CCN(C(=O)c2cnc(-c3ccncc3NC(=O)c3c(N)nn4cc(F)cnc34)c(Cl)c2)CC1` [I-C-46, 2-amino-N-(3-chloro-5-(4-methylpiperazine-1-carbonyl)-[2,4′-bipyridin]-3′-yl)-6-fluoropyrazolo[1,5-a]pyrimidine-3-carboxamide] it was 10 to 1000 nM; in that of `Nc1nn2cc(F)cnc2c1C(=O)Nc1cnccc1O[C@@H]1CN2CCC1CC2` [I-O-10, (S)-2-amino-6-fluoro-N-(4-(quinuclidin-3-yloxy)pyridin-3-yl)pyrazolo[1,5-a]pyrimidine-3-carboxamide], 10 to 1000 nM.
With `CN1CCC[C@@H]1COc1ccncc1NC(=O)c1c(N)nn2cc(Cl)cnc12` [I-O-49, (R)-2-amino-6-chloro-N-(4-((1-methylpyrrolidin-2-yl)methoxy)pyridin-3-yl)pyrazolo[1,5-a]pyrimidine-3-carboxamide], the Ki was in the range of 10 to 1000 nM.
Turning to `N#CCc1cnc2c(C(=O)Nc3cnccc3OCCO)c(N)nn2c1` [I-O-33, 2-amino-6-(cyanomethyl)-N-(4-(2-hydroxyethoxy)pyridin-3-yl)pyrazolo[1,5-a]pyrimidine-3-carboxamide], the Ki was under 10 nM.
Consider `Nc1nn2cc(F)cnc2c1C(=O)Nc1cncc(F)c1N1CCN(C(=O)C2COC2)CC1` [I-N-278, 2-amino-6-fluoro-N-(5-fluoro-4-(4-(oxetane-3-carbonyl)piperazin-1-yl)pyridin-3-yl)pyrazolo[1,5-a]pyrimidine-3-carboxamide], for which the Ki lay in the range of 10 to 1000 nM.
On the same count and under the same terms, in the case of `Nc1nn2cc(F)cnc2c1C(=O)Nc1cnccc1N1CCN2CCOC[C@H]2C1` [I-N-116, (R)-2-amino-6-fluoro-N-(4-(hexahydropyrazino[2,1-c][1,4]oxazin-8(1H)-yl)pyridin-3-yl)pyrazolo[1,5-a]pyrimidine-3-carboxamide] it was 10 to 1000 nM; in that of `Nc1nn2cc(F)cnc2c1C(=O)Nc1cnccc1N1CCN(C2COC2)C2CC21` (stereo not drawn) [I-N-31, 2-amino-6-fluoro-N-(4-(5-(oxetan-3-yl)-2,5-diazabicyclo[4.1.0]heptan-2-yl)pyridin-3-yl)pyrazolo[1,5-a]pyrimidine-3-carboxamide], 1000 to 5000 nM.
Same read-out and setting: for `CN1CCC(Oc2ccncc2NC(=O)c2c(N)nn3cc(Cl)cnc23)CC1` [I-O-64, 2-amino-6-chloro-N-(4-((1-methylpiperidin-4-yl)oxy)pyridin-3-yl)pyrazolo[1,5-a]pyrimidine-3-carboxamide] the value was 10 to 1000 nM; for `COCCN1CCN(c2ccncc2NC(=O)c2c(N)nn3cc(F)cnc23)CC1` [I-N-22, 2-amino-6-fluoro-N-(4-(4-(2-methoxyethyl)piperazin-1-yl)pyridin-3-yl)pyrazolo[1,5-a]pyrimidine-3-carboxamide], 10 to 1000 nM.
The same measure, in the same setting: for `Cc1cc(C(=O)N2CCN(C)CC2)ccc1-c1ccncc1NC(=O)c1c(N)nn2cc(F)cnc12` [I-C-45, 2-amino-6-fluoro-N-(4-(2-methyl-4-(4-methylpiperazine-1-carbonyl)phenyl)pyridin-3-yl)pyrazolo[1,5-a]pyrimidine-3-carboxamide] the value was 10 to 1000 nM.
For the compound `Cc1cncc(NC(=O)c2c(N)nn3cc(Cl)cnc23)c1N1CCN(C)CC1` [I-N-57, 2-amino-6-chloro-N-(5-methyl-4-(4-methylpiperazin-1-yl)pyridin-3-yl)pyrazolo[1,5-a]pyrimidine-3-carboxamide], the Ki is 10 to 1000 nM.
Still for that read-out and setting: in the case of `Nc1nn2cc(F)cnc2c1C(=O)Nc1cncc(F)c1N1CCC2(CC1)COC2` [I-N-239, 2-amino-6-fluoro-N-(5-fluoro-4-(2-oxa-7-azaspiro[3.5]nonan-7-yl)pyridin-3-yl)pyrazolo[1,5-a]pyrimidine-3-carboxamide] it was 10 to 1000 nM; in that of `COc1cc(Cl)ncc1NC(=O)c1c(N)nn2cc(CC#N)cnc12` [I-O-27, 2-amino-N-(6-chloro-4-methoxypyridin-3-yl)-6-(cyanomethyl)pyrazolo[1,5-a]pyrimidine-3-carboxamide], under 10 nM; in that of `Nc1nn2cc(F)cnc2c1C(=O)Nc1cncc(F)c1N1CCS(=O)(=O)CC1` [I-N-250, 2-amino-N-(4-(1,1-dioxidothiomorpholino)-5-fluoropyridin-3-yl)-6-fluoropyrazolo[1,5-a]pyrimidine-3-carboxamide], 10 to 1000 nM.
Still for that read-out and setting: in the case of `Nc1nn2cc(F)cnc2c1C(=O)Nc1cncc(F)c1N1CCC(C(=O)N2CCC2)CC1` [I-G-8, 2-amino-N-(4-(4-(azetidine-1-carbonyl)piperidin-1-yl)-5-fluoropyridin-3-yl)-6-fluoropyrazolo[1,5-a]pyrimidine-3-carboxamide] it was 10 to 1000 nM.
Same read-out and setting: for `N#CCc1cnc2c(C(=O)Nc3cnccc3OC3CCCC3)c(N)nn2c1` [I-O-43, 2-amino-6-(cyanomethyl)-N-(4-(cyclopentyloxy)pyridin-3-yl)pyrazolo[1,5-a]pyrimidine-3-carboxamide] the value was under 10 nM; for `Nc1nn2cc(F)cnc2c1C(=O)Nc1cnccc1N1CCN2C(=O)OCC2C1` (stereo not drawn) [I-N-238, 2-amino-6-fluoro-N-(4-(3-oxotetrahydro-1H-oxazolo[3,4-a]pyrazin-7(3H)-yl)pyridin-3-yl)pyrazolo[1,5-a]pyrimidine-3-carboxamide], 10 to 1000 nM.
With `N#CC1(C(=O)N2CCC(c3ccncc3NC(=O)c3c(N)nn4cc(F)cnc34)CC2)CC1` [I-C-71, 2-amino-N-(4-(1-(1-cyanocyclopropanecarbonyl)piperidin-4-yl)pyridin-3-yl)-6-fluoropyrazolo[1,5-a]pyrimidine-3-carboxamide], the Ki lay within 10 to 1000 nM.
For the compound `Nc1nn2cc(Cl)cnc2c1C(=O)Nc1cnccc1N1CCC(N2CCC23COC3)CC1` [I-N-109, N-(4-(4-(6-oxa-1-azaspiro[3.3]heptan-1-yl)piperidin-1-yl)pyridin-3-yl)-2-amino-6-chloropyrazolo[1,5-a]pyrimidine-3-carboxamide], the Ki lay within 10 to 1000 nM.
Still for that read-out and setting: in the case of `N#CC1CN(C(=O)C2CCN(c3c(F)cncc3NC(=O)c3c(N)nn4cc(F)cnc34)CC2)C1` [I-G-76, 2-amino-N-(4-(4-(3-cyanoazetidine-1-carbonyl)piperidin-1-yl)-5-fluoropyridin-3-yl)-6-fluoropyrazolo[1,5-a]pyrimidine-3-carboxamide] it was 10 to 1000 nM.
